According to patent publication US20230357363A1, “PROTEIN DOUBLE-SHELL NANOSTRUCTURES AND THEIR USE” (The Board of Trustees of the Leland Stanford Junior …, priority 2020, published 2023):

Tested on: BODIPY-conjugated pKID domain of CREB protein
Assay: Fluorescence polarization assay of MBP-KIX-apoferritin with BODIPY-conjugated pKID
Assay type: binding
Settings: FP assay, protein titrated against BODIPY-pKID, read 30 minutes after mixing
Text: FIGS. 1A-1D. The design of double-shell system. FIG. 1A. The double shell system is shown by cartoon with apoferritin as inner cage, MBP as outer cage, and small cargo proteins in the middle portion. FIG. 1B. Strategy of plasmid construction. The cargo protein KIX C-terminus is fused to the apoferritin N-terminus with the C-terminal 668-672 residues of KIX and N-terminal 1-5 residues of apoferritin truncated for stability. Several mutations (shown as lightning) were also incorporated on the interface between KIX and apoferritin to enhance stability. The MBP tag is fused to the KIX N-terminus. FIG. 1C. Design of mutations that stabilize the KIX domain of CBP on the apoferritin complex. […] Fluorescence polarization assay using the BODIPY-conjugated phosphorylated KID domain of CREB and KIX, MBP-KIX-apoferritin construct 3, or MBP-apoferritin. […]
Fluorescence polarization (FP) using the MBP-KIX-apoferritin and the BODIPY-conjugated phosphorylated pKID domain of CREB was performed as described previously^16. […] Phosphorylation efficiency of pKID, which was assessed using a SDS-gel containing Phos-tag™ Acrylamide (FUJIFILM), was almost 100%. pKID was purified using the phosphoprotein enrichment kit (Takara). […] Molar concentration of KIX, MBP-KIX-apoferritin construct 3, and MBP-apoferritin was calculated as a monomer. FP was measured 30 minutes after mixing using INFINITE M1000 PRO (TECAN). […]

binding affinity of KIX for the BODIPY-conjugated pKID domain of CREB (function of KIX in the 24-mer complex): still maintained its function
Substance: MKF: 24-mer MBP-KIX-apoferritin fusion protein double-shell nanostructure from construct 3 (T27C, A31C, E169C, C177S, E237C)
